# In patent US6025467A, “Parathyroid hormone derivatives and their use” (Takeda Chemical Industries, Ltd., priority 1995, dated 2000):
# Non-standard residues stand in square brackets, D forms with d. Residues, ends and D or L forms follow the SMILES beside them. No end group written: not given here. 2Nal = N[C@@H](Cc1ccc2ccccc2c1)C(=O)O; Aib = CC(C)(N)C(=O)O
# Test system: Sprangue Dawley rats
# Assay: Increase in femur bone weight in rats after subcutaneous dosing
# Assay type: in vivo, rat
# Details: 4.9 nmol/kg a day subcutaneously for two weeks; four-week-old male rats; dried right femur weight compared with vehicle group
# Method: To four-week-old male Sprangue Dawley rats, the compounds synthesized in Example 1 […], and increases in the bone weight in their femurs were compared with that of a group to which a vehicle (0.15M NaCl, 0.001N hydrochloric acid and 2% heat-inactivated rat serum) was given. After administration, their right femurs were taken out, and the tissues around them were removed. Then, the femurs were dried at 100° C. for 3 hours and weighed.
row,Molecule,bone increase
1,"CC[C@H](C)[C@H](NC(=O)[C@H](CCC(=O)O)NC(=O)[C@H](CO)NC(=O)[C@@H](NC(=O)[C@@H](N)CO)C(C)C)C(=O)N[C@@H](CCC(N)=O)C(=O)N[C@@H](CC(C)C)C(=O)N[C@@H](CCSC)C(=O)N[C@@H](Cc1c[nH]cn1)C(=O)N[C@@H](CCC(=O)O)C(=O)N[C@@H](Cc1ccccc1)C(=O)N[C@H](C)C(=O)N[C@@H](CCCCN)C(=O)N[C@@H](Cc1c[nH]cn1)C(=O)N[C@@H](CC(C)C)C(=O)N[C@@H](CC(N)=O)C(=O)N[C@@H](CO)C(=O)N[C@@H](CCSC)C(=O)N[C@@H](CCC(=O)O)C(=O)N[C@@H](CCCNC(=N)N)C(=O)N[C@H](C(=O)N[C@@H](CCC(=O)O)C(=O)N[C@@H](Cc1c[nH]c2ccccc12)C(=O)N[C@@H](CC(C)C)C(=O)N[C@@H](CCCNC(=N)N)C(=O)N[C@@H](CCCCN)C(=O)N[C@@H](CCCCN)C(=O)N[C@@H](CC(C)C)C(=O)N[C@@H](CCC(N)=O)C(=O)N[C@@H](CC(=O)O)C(=O)N[C@H](C(=O)N[C@@H](Cc1c[nH]cn1)C(=O)N[C@@H](CC(N)=O)C(=O)N[C@@H](Cc1ccccc1)C(=O)O)C(C)C)C(C)C [(10), [Glu^10, Phe^11, D-Ala^12] hPTH(1-34)] (H-SVSEIQLMHEF[dA]KHLNSMERVEWLRKKLQDVHNF-OH)",19.4 mg
2,"CC[C@H](C)[C@H](NC(=O)[C@H](CCC(=O)O)NC(=O)[C@H](CO)NC(=O)[C@@H](NC(=O)[C@@H](N)CO)C(C)C)C(=O)N[C@@H](CCC(N)=O)C(=O)N[C@@H](CC(C)C)C(=O)N[C@@H](CCSC)C(=O)N[C@@H](Cc1c[nH]cn1)C(=O)N[C@@H](CCC(=O)O)C(=O)N[C@@H](CC(C)C)C(=O)NCC(=O)N[C@@H](CCCCN)C(=O)N[C@@H](Cc1c[nH]cn1)C(=O)N[C@@H](CC(C)C)C(=O)N[C@@H](CO)C(=O)N[C@@H](CO)C(=O)N[C@@H](CCSC)C(=O)N[C@@H](CCC(=O)O)C(=O)N[C@@H](CCCNC(=N)N)C(=O)N[C@H](C(=O)N[C@@H](CCC(=O)O)C(=O)N[C@@H](Cc1c[nH]c2ccccc12)C(=O)N[C@@H](CC(C)C)C(=O)N[C@@H](CCCNC(=N)N)C(=O)N[C@@H](CCCCN)C(=O)N[C@@H](CCCCN)C(=O)N[C@@H](CC(C)C)C(=O)N[C@@H](CCC(N)=O)C(=O)N[C@@H](CC(=O)O)C(=O)N[C@H](C(=O)N[C@@H](Cc1c[nH]cn1)C(=O)N[C@@H](CC(N)=O)C(=O)N[C@@H](Cc1ccccc1)C(=O)O)C(C)C)C(C)C [(15), [Glu^10, Ser^16] hPTH(1-34)] (H-SVSEIQLMHELGKHLSSMERVEWLRKKLQDVHNF-OH)",15.1 mg
3,"CC[C@H](C)[C@H](NC(=O)[C@H](CCC(=O)O)NC(=O)[C@H](CO)NC(=O)[C@@H](NC(=O)[C@@H](N)CO)C(C)C)C(=O)N[C@@H](CCC(N)=O)C(=O)N[C@@H](CC(C)C)C(=O)N[C@@H](CCSC)C(=O)N[C@@H](Cc1c[nH]cn1)C(=O)N[C@@H](CCC(=O)O)C(=O)N[C@@H](Cc1ccccc1)C(=O)NCC(=O)N[C@@H](CCCCN)C(=O)N[C@@H](Cc1c[nH]cn1)C(=O)N[C@@H](CC(C)C)C(=O)N[C@@H](CCCCN)C(=O)N[C@@H](CO)C(=O)N[C@@H](CCSC)C(=O)N[C@@H](CCC(=O)O)C(=O)N[C@@H](CCCNC(=N)N)C(=O)N[C@H](C(=O)N[C@@H](CCC(=O)O)C(=O)N[C@@H](Cc1c[nH]c2ccccc12)C(=O)N[C@@H](CC(C)C)C(=O)N[C@@H](CCCNC(=N)N)C(=O)N[C@@H](CCCCN)C(=O)N[C@@H](CCC(N)=O)C(=O)N[C@@H](CC(C)C)C(=O)N[C@@H](CCC(N)=O)C(=O)N[C@@H](CC(=O)O)C(=O)N[C@H](C(=O)N[C@@H](Cc1c[nH]cn1)C(=O)N[C@@H](CC(N)=O)C(=O)N[C@@H](Cc1ccccc1)C(=O)O)C(C)C)C(C)C [(17), [Glu^10, Phe^11, Lys^16, Gln^27] hPTH(1-34)] (H-SVSEIQLMHEFGKHLKSMERVEWLRKQLQDVHNF-OH)",12.4 mg
4,"CC[C@H](C)[C@H](NC(=O)[C@H](CCC(=O)O)NC(=O)[C@H](CO)NC(=O)[C@@H](NC(=O)[C@@H](N)CO)C(C)C)C(=O)N[C@@H](CCC(N)=O)C(=O)N[C@@H](CC(C)C)C(=O)N[C@@H](CCSC)C(=O)N[C@@H](Cc1c[nH]cn1)C(=O)N[C@@H](CC(=O)O)C(=O)N[C@@H](Cc1ccccc1)C(=O)NCC(=O)N[C@@H](CCCCN)C(=O)N[C@@H](Cc1c[nH]cn1)C(=O)N[C@@H](CC(C)C)C(=O)N[C@@H](CCCCN)C(=O)N[C@@H](CCCCN)C(=O)N[C@@H](CCSC)C(=O)N[C@@H](CCC(=O)O)C(=O)N[C@@H](CCCNC(=N)N)C(=O)N[C@H](C(=O)N[C@@H](CCC(=O)O)C(=O)N[C@@H](Cc1c[nH]c2ccccc12)C(=O)N[C@@H](CC(C)C)C(=O)N[C@@H](CCCNC(=N)N)C(=O)N[C@@H](CCCCN)C(=O)N[C@@H](CCC(N)=O)C(=O)N[C@@H](CC(C)C)C(=O)N[C@@H](CCC(N)=O)C(=O)NC(C)(C)C(=O)N[C@H](C(=O)N[C@@H](Cc1c[nH]cn1)C(=O)N[C@@H](CC(N)=O)C(=O)N[C@@H](Cc1ccccc1)C(=O)O)C(C)C)C(C)C [(19), [Asp^10, Phe^11, Lys^16,17, Gln^2 7, Aib^30] hPTH(1-34)] (H-SVSEIQLMHDFGKHLKKMERVEWLRKQLQ[Aib]VHNF-OH)",16.9 mg
5,"CC[C@H](C)[C@H](NC(=O)[C@H](CCC(=O)O)NC(=O)[C@H](CO)NC(=O)[C@@H](NC(=O)[C@@H](N)CO)C(C)C)C(=O)N[C@@H](CCC(N)=O)C(=O)N[C@@H](CC(C)C)C(=O)N[C@@H](CCSC)C(=O)N[C@@H](Cc1c[nH]cn1)C(=O)N[C@@H](CCC(=O)O)C(=O)N[C@@H](CC(C)C)C(=O)NCC(=O)N[C@@H](CCCN)C(=O)N[C@@H](Cc1c[nH]cn1)C(=O)N[C@@H](CC(C)C)C(=O)N[C@@H](CC(N)=O)C(=O)N[C@@H](CO)C(=O)N[C@@H](CCSC)C(=O)N[C@@H](CCC(=O)O)C(=O)N[C@@H](CCCNC(=N)N)C(=O)N[C@H](C(=O)N[C@@H](CCC(=O)O)C(=O)N[C@@H](Cc1c[nH]c2ccccc12)C(=O)N[C@@H](CC(C)C)C(=O)N[C@@H](CCCNC(=N)N)C(=O)N[C@@H](CCCCN)C(=O)N[C@@H](CCCCN)C(=O)N[C@@H](CC(C)C)C(=O)N[C@@H](CCC(N)=O)C(=O)N[C@@H](CC(=O)O)C(=O)N[C@H](C(=O)N[C@@H](Cc1c[nH]cn1)C(=O)N[C@@H](CC(N)=O)C(=O)N[C@@H](Cc1ccccc1)C(=O)O)C(C)C)C(C)C [(22), [Glu^10, Orn^13] hPTH(1-34)]",14.8 mg

# Same assay, conditions: 4.9 nmol/kg a day subcutaneously; continuously administered for 4 weeks; dried right femur weight compared with vehicle group
row,Molecule,bone increase
1,"CC[C@H](C)[C@H](NC(=O)[C@H](CCC(=O)O)NC(=O)[C@H](CO)NC(=O)[C@@H](NC(=O)[C@@H](N)CO)C(C)C)C(=O)N[C@@H](CCC(N)=O)C(=O)N[C@@H](CC(C)C)C(=O)N[C@@H](CCSC)C(=O)N[C@@H](Cc1c[nH]cn1)C(=O)N[C@@H](CC(=O)O)C(=O)N[C@@H](CCCCN)C(=O)NCC(=O)N[C@@H](CCCCN)C(=O)N[C@@H](Cc1c[nH]cn1)C(=O)N[C@@H](CC(C)C)C(=O)N[C@@H](CC(N)=O)C(=O)N[C@@H](CO)C(=O)N[C@@H](CCSC)C(=O)N[C@@H](CCC(=O)O)C(=O)N[C@@H](CCCNC(=N)N)C(=O)N[C@H](C(=O)N[C@@H](CCC(=O)O)C(=O)N[C@@H](Cc1c[nH]c2ccccc12)C(=O)N[C@@H](CC(C)C)C(=O)N[C@@H](CCCNC(=N)N)C(=O)N[C@@H](CCCCN)C(=O)N[C@@H](CCCCN)C(=O)N[C@@H](CC(C)C)C(=O)N[C@@H](CCC(N)=O)C(=O)N[C@@H](CC(=O)O)C(=O)N[C@H](C(=O)N[C@@H](Cc1c[nH]cn1)C(=O)N[C@@H](CC(N)=O)C(=O)N[C@@H](Cc1ccccc1)C(=O)O)C(C)C)C(C)C [(1), [Asp^10, Lys^11] hPTH(1-34)] (H-SVSEIQLMHDKGKHLNSMERVEWLRKKLQDVHNF-OH)",66.6 mg

# Molecular target: PTH receptor (mouse, UniProt P41593)
# Assay: cell-based or functional assay
# Details: not given
row,Molecule,cAMP increase (pmol/well)
1,"SVSEIQLMHD[2Nal]GKHLNSMERVEWLRKKLQDVHNF [[Asp^10, Ala(2-Naph)^11 ] hPTH(1-34)]",2.65 pmol/well
2,SVSEIQLMHDLGKHLNSMERVEWLRKKLQDVHNF [[Asp^10 ] hPTH(1-34)],0.6 pmol/well
3,SVSEIQLMHELGKHLNSMERVEWLRKKLQDVHNF [[Glu^10 ] hPTH(1-34)],1.81 pmol/well
4,"SVSEIQLMHDFGKHLNSMERVEWLRKKLQDVHNF [[Asp^10, Phe^11 ] hPTH(1-34)]",2.58 pmol/well
